Read-outs that look alike come from different tables or passages of the source.
Columns and labels:
[1] = tested on: HBV; conditions: Phase 1b proof-of-concept clinical studies; cited from earlier work
[2] = tested on: HBV; assay: HBV inhibition assay in HepAD38 cells (extracellular HBV DNA by direct qPCR); assay type: cell-based, Hepatitis B virus; conditions: 96 hours; for EC50: 8-point dose-response curve, read-out: HBV inh EC50

Compound	EC50 ([2]; Hepatitis B virus)	also measured
O=C(Nc1cc(F)c(F)c(F)c1)c1ccc(F)c(S(=O)(=O)N2CCC(O)CC2)c1 [NVR3-778]		reduction in HBV DNA and serum HBV RNA [1]: significant reduction in HBV DNA and serum HBV RNA
Cc1nnc(N2C[C@H]3COc4c(cn(C)c4C(=O)Nc4ccc(F)c(Cl)c4)S(=O)(=O)N[C@H]3C2)o1 [Example E119, (3aR,10aR)—N-(3-chloro-4-fluorophenyl)-7-methyl-2-(5-methyl-1,3,4-oxadiazol-2-yl)-2,3,3a,4,10,10a-hexahydro-1H,7H-dipyrrolo[3,4-b:3′,4′-f][1,4,5]oxathiazocine-8-carboxamide 5,5-dioxide]	< 1000 nM	
Cc1cc(NC(=O)c2c3c(cn2C)S(=O)(=O)NC2CN(c4nnco4)CC2CO3)ccc1F (stereo not drawn) [Example E49, cis-N-(4-fluoro-3-methylphenyl)-7-methyl-2-(1,3,4-oxadiazol-2-yl)-2,3,3a,4,10,10a-hexahydro-1H,7H-dipyrrolo[3,4-b:3′,4′-f][1,4,5]oxathiazocine-8-carboxamide 5,5-dioxide]	< 1000 nM	
CCOC(=O)N1CC2COc3c(cn(C)c3C(=O)Nc3ccc(F)c(C(F)F)c3)S(=O)(=O)NC2C1 (single isomer, unassigned) [Example E44, Ethyl 8-((3-(difluoromethyl)-4-fluorophenyl)carbamoyl)-7-methyl-3a,4,10,10a-tetrahydro-1H,7H-dipyrrolo[3,4-b:3′,4′-f][1,4,5]oxathiazocine-2(3H)-carboxylate 5,5-dioxide (Chiral 3aS,10aS or 3aR,10aR - Stereochemistry unknown)]		Anti HBV Activity (conc μM) ([2]; 0.1 μM, relative to non-treated reference): B (0.1) (HBV inhibition less than 50% at the concentration indicated in the table)
Cc1cc(NC(=O)c2c3c(cn2C)S(=O)(=O)NC2CCN(C(=O)C45CC(CO4)C5)CC2CO3)ccc1F (racemic) [Example E128, Cis-8-(2-oxabicyclo[2.1.1]hexane-1-carbonyl)-N-(4-fluoro-3-methylphenyl)-2-methyl-5,5a,6,7,8,9,9a,10-octahydro-2H-pyrido[4,3-f]pyrrolo[3,4-b][1,4,5]oxathiazocine-1-carboxamide 4,4-dioxide]	< 1000 nM	
Cc1cc(NC(=O)c2c3c(cn2C)S(=O)(=O)NC2CN(C(=O)C45CC(CO4)C5)CC2(C)CO3)ccc1F (stereo not drawn) [Example E90, cis-2-(2-oxabicyclo[2.1.1]hexane-1-carbonyl)-N-(4-fluoro-3-methylphenyl)-7,10a-dimethyl-2,3,3a,4,10,10a-hexahydro-1H,7H-dipyrrolo[3,4-b:3′,4′-f][1,4,5]oxathiazocine-8-carboxamide 5,5-dioxide]	< 1000 nM	
Cc1nnc(C(=O)N2CC3COc4c(cn(C)c4C(=O)Nc4cc(F)c(F)c(F)c4)S(=O)(=O)NC3C2)o1 (stereo not drawn) [Example E51, cis-7-methyl-2-(5-methyl-1,3,4-oxadiazole-2-carbonyl)-N-(3,4,5-trifluorophenyl)-2,3,3a,4,10,10a-hexahydro-1H,7H-dipyrrolo[3,4-b:3′,4′-f][1,4,5]oxathiazocine-8-carboxamide 5,5-dioxide]	< 1000 nM	inhibition at 0.05 µM ([2]; Hepatitis B virus, 0.05 μM, relative to non-treated reference, read-out: Anti HBV Activity (conc μM)): > 50%
Cc1cc(NC(=O)c2c3c(cn2C)S(=O)(=O)N[C@H]2CN(C(=O)C45CC(CO4)C5)C[C@H]2CO3)ccc1F [Example E109, (3aR,10aR)-2-(2-oxabicyclo[2.1.1]hexane-1-carbonyl)-N-(4-fluoro-3-methylphenyl)-7-methyl-2,3,3a,4,10,10a-hexahydro-1H,7H-dipyrrolo[3,4-b:3′,4′-f][1,4,5]oxathiazocine-8-carboxamide 5,5-dioxide]	< 1000 nM	
Cc1cc(NC(=O)c2c3c(cn2C)S(=O)(=O)NC2CN(C(=O)C4(C)COC4)CC2CO3)ccc1F (stereo not drawn) [Example E149, Trans-N-(4-fluoro-3-methylphenyl)-7-methyl-2-(3-methyloxetane-3-carbonyl)-2,3,3a,4,10,10a-hexahydro-1H,7H-dipyrrolo[3,4-b:3′,4′-f][1,4,5]oxathiazocine-8-carboxamide 5,5-dioxide]		EC50 [2]: < 1000 nM

Reference: patent US11504382B2, “Tricyclic inhibitors of Hepatitis B virus” (Antios Therapeutics, Inc., priority 2018, dated 2022)
